Data taken from ChEMBL document CHEMBL5120775, “Boosting the Discovery of Small Molecule Inhibitors of Glucose-6-Phosphate Dehydrogenase for the Treatment of Cancer, Infectious Diseases, and Inflammation” (J Med Chem, 2022).

Tests used:
[1] = biological target: T1, Glucose-6-phosphate 1-dehydrogenase (Homo sapiens, UniProt P11413); assay: Binding affinity to human G6PD
[2] = Binding affinity to Plasmodium falciparum GluPho
[3] = Selectivity index, ratio of Ki for human G6PD to Ki for Plasmodium falciparum GluPho
[4] = Inhibition of Plasmodium falciparum GluPho
[5] = biological target: T1, Glucose-6-phosphate 1-dehydrogenase; assay: Inhibition of human C-terminal His tagged G6PD overexpressed in Escherichia coli BL21
[6] = Inhibition of Trypanosoma cruzi G6PD expressed in Escherichia coli BL21 (DE3) by G6PDH-diaphorase-resorufin coupled assay
[7] = Inhibition of Trypanosoma cruzi G6PD
[8] = Inhibition of Plasmodium falciparum recombinant GluPho measured for 20 to 30 mins by multiwell plate reader method
Trypanosoma cruzi = assay: Trypanocidal activity against Trypanosoma cruzi assessed as lethal dose; type: functional; settings: read-out: LD50 (the source's name)
[9] = biological target: T1, Glucose-6-phosphate 1-dehydrogenase; assay: Inhibition of human G6PD
[10] = Antiproliferative activity against human MCF10AT1 cells; type: functional, cell-based
Plasmodium falciparum = assay: Antimalarial activity against Plasmodium falciparum 3D7 incubated for 48 hrs followed by [3H]-hypoxanthine addition measured after 24 hrs by microdilution method; type: functional, organism-based
[11] = Inhibition of Plasmodium vivax G6PD
[12] = biological target: T1, Glucose-6-phosphate 1-dehydrogenase; assay: Binding affinity to G6PD (unknown origin) assessed as Gibbs free energy

T1 sequence (P11413 whole entry): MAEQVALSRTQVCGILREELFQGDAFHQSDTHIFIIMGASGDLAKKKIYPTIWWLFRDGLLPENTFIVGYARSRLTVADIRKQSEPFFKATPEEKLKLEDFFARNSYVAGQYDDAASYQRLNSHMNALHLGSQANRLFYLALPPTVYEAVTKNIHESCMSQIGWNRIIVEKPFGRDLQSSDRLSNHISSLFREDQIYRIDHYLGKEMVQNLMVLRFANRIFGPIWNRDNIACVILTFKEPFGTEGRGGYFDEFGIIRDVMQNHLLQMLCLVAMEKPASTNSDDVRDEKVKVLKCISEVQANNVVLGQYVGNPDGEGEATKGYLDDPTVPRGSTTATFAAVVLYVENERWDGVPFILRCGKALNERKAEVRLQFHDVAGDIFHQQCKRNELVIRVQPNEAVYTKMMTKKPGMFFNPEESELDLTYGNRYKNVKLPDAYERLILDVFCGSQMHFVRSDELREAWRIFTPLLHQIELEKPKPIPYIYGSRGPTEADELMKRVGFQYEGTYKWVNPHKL

CO[C@H]1O[C@H](CS(=O)(=O)CCN)[C@@H](O)[C@H](O)[C@H]1O
Ki [1]: > 400 µM
Ki [2]: 22.8 µM
Ratio Ki [3]: > 18

COc1cc(/C=C2\C(=O)N(c3nc(-c4ccc(Cl)cc4)cs3)N=C2C)cc(OC)c1OC
IC50 [4]: 1.7 µM
IC50 [5]: 0.6 µM

Cc1ccc(Nc2ncc3c(n2)CCCC3=O)cc1
IC50 [6]: 0.48 µM
IC50 [7]: 10 µM

COc1ccc(-c2ccc(C=C3C(=O)NC(=O)NC3=O)o2)c([N+](=O)[O-])c1
IC50 [8]: 4.6 µM

CO[C@H]1O[C@H](CSCCN)[C@@H](O)[C@H](O)[C@H]1O
Ratio Ki [3]: 26

O=C(Cn1ccnc1[N+](=O)[O-])NCc1ccccc1 [BENZNIDAZOLE]
IC50 [7]: 8.5 µM

C[C@]12CC[C@H](O)C[C@@H]1CC[C@@H]1[C@@H]2CC[C@]2(C)C(=O)[C@H](Br)C[C@@H]12 [16.ALPHA.-BROMOEPIANDROSTERONE]
IC50 [7]: 0.086 µM
LC50 (Trypanosoma cruzi): 12 µM

Cc1cccc(N2C(=O)NC(=O)/C(=C/c3ccc(-c4ccc([N+](=O)[O-])cc4C)o3)C2=O)c1
IC50 [8]: 5.1 µM

O=c1c2ccccc2nc(-c2cccnc2)n1-c1ccc(Br)cn1
IC50 [9]: 2.6 µM
IC50 [8]: 4.5 µM
IC50 [5]: 2.6 µM

CO[C@H]1O[C@H](CS(=O)(=O)CCNC(=N)N)[C@@H](O)[C@H](O)[C@H]1O
Ki [1]: 16.8 µM
Ki [2]: 32.4 µM
Ratio Ki [3]: 0.5

Cc1ccc(C)c(S(=O)(=O)Nc2ccc(O)c3ccccc23)c1
IC50 [10]: 25 µM
IC50 (Plasmodium falciparum): 5.3 µM
IC50 [8]: 22 µM
IC50 [5]: 0.2 µM

CO[C@H]1O[C@H](CS(=O)(=O)CCC#N)[C@@H](O)[C@H](O)[C@H]1O
Ki [2]: 68.8 µM
Ratio Ki [3]: > 2.9

CO[C@H]1O[C@H](CSCCNC(=N)N)[C@@H](O)[C@H](O)[C@H]1O
Ki [2]: 45.6 µM
Ratio Ki [3]: > 4.4

Cc1cccc(Nc2ncc3c(n2)CCCC3=O)c1
IC50 [7]: 0.63 µM

CCN1CCC[C@@H]1CNC(=O)c1ccc2c(c1)NC(=O)c1cccc(C)c1S2
IC50 [4]: 0.19 µM
IC50 [11]: 15.3 µM

COc1ccc(N2CCN(c3nc(C)c4c(n3)CCCC4=O)CC2)cc1
IC50 [6]: 0.61 µM

CCCCCCCn1cnc2sc(C(N)=O)c(C)c2c1=O
IC50 [6]: 4.9 µM

CO[C@H]1O[C@H](CSCCC#N)[C@@H](O)[C@H](O)[C@H]1O
Ki [2]: 259 µM
Ratio Ki [3]: > 0.8

CO[C@H]1O[C@H](CSCCCN)[C@@H](O)[C@H](O)[C@H]1O
Ki [2]: 289 µM
Ratio Ki [3]: 0.4

O=C1Nc2ccc(Br)cc2/C1=C1/SC(=S)N(C(Cc2ccccc2)C(=O)O)C1=O (stereo unspecified)
IC50 [5]: 3.1 µM

O=C1NC(=O)N(c2ccc(O)cc2)C(=O)/C1=C\c1ccc(-c2ccccc2[N+](=O)[O-])o1
IC50 [8]: 19.9 µM

COc1ccc(-n2c(-c3cccnc3)nc3ccccc3c2=O)cc1
IC50 [9]: 3 µM
IC50 [8]: 7.6 µM
IC50 [5]: 3 µM

O=C(Nc1ccc(Cl)cc1)Nc1ncc([N+](=O)[O-])s1
deltaG [12]: -6.91 kcal/mol

CCN1CCC[C@@H]1CNC(=O)c1ccc2c(c1)NC(=O)/C(=C/c1ccccc1F)S2
IC50 (Plasmodium falciparum): 2.3 µM

CC(C)(C)c1ccc(Oc2ccc(N)cn2)cc1 [LIMANTRAFIN]
IC50 (Plasmodium falciparum): 0.97 µM
IC50 [8]: 1.5 µM

CO[C@H]1O[C@H](CS(=O)(=O)CCCNC(=N)N)[C@@H](O)[C@H](O)[C@H]1O
Ki [2]: 42.9 µM
Ratio Ki [3]: 0.5

O=S(=O)(Nc1ccc(O)c2ccccc12)c1ccc(F)cc1
IC50 (Plasmodium falciparum): 3.9 µM
IC50 [8]: 30 µM

CO[C@H]1O[C@H](CS(=O)(=O)CCCN)[C@@H](O)[C@H](O)[C@H]1O
Ki [2]: 34.4 µM
Ratio Ki [3]: 1
